Like-named read-outs stand apart in the source and are kept apart here.
Legend:
[1] = target: T1, wild-type human cardiac sodium channel, hNav1.5 (Homo sapiens, UniProt Q14524); assay: Late INa screening assay (QPatch whole cell patch clamp, Tefluthrin-induced late current); format: cell-based; conditions: 1 uM; HEK293 hNav1.5; percent block of late INa
In short: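 HEK293 cells stably expressing hNav1.5 without beta subunits were whole-cell patch clamped at 23-25 °C, stepping from −120 to −20 mV for 250 ms at 0.1 Hz. Late current (240–265 ms) was induced with 10 μM Tefluthrin, and compounds were added typically at 0.3 or 1 μM. Percent block was taken against 0 Na baseline with rundown correction.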

[2] = target: T1, wild-type human cardiac sodium channel, hNav1.5; assay: Peak INa screening assay (tonic block and use-dependent block); format: cell-based
In short: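 Whole-cell automated patch clamp, 23-25° C, on hNav1.5 alpha-only HEK293 cells with Na+ lowered to 40 mM by choline. Block measured after two additions of 1 or 3 μM compound and 200 s wait: tonic at 0.1 Hz, use-dependent at 50th pulse (−20 mV, 20 ms, 3 Hz) from −100 mV, relative to drug-free, rundown corrected.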

[3] = use-dependent block of Peak INa, 3 Hz, pulse 50, read-out: Peak UDB 3 Hz 3 uM
[4] = tonic block of Peak INa, 0.1 Hz, holding -100 mV, read-out: Peak TB 3 uM

T1 sequence (Q14524 whole entry): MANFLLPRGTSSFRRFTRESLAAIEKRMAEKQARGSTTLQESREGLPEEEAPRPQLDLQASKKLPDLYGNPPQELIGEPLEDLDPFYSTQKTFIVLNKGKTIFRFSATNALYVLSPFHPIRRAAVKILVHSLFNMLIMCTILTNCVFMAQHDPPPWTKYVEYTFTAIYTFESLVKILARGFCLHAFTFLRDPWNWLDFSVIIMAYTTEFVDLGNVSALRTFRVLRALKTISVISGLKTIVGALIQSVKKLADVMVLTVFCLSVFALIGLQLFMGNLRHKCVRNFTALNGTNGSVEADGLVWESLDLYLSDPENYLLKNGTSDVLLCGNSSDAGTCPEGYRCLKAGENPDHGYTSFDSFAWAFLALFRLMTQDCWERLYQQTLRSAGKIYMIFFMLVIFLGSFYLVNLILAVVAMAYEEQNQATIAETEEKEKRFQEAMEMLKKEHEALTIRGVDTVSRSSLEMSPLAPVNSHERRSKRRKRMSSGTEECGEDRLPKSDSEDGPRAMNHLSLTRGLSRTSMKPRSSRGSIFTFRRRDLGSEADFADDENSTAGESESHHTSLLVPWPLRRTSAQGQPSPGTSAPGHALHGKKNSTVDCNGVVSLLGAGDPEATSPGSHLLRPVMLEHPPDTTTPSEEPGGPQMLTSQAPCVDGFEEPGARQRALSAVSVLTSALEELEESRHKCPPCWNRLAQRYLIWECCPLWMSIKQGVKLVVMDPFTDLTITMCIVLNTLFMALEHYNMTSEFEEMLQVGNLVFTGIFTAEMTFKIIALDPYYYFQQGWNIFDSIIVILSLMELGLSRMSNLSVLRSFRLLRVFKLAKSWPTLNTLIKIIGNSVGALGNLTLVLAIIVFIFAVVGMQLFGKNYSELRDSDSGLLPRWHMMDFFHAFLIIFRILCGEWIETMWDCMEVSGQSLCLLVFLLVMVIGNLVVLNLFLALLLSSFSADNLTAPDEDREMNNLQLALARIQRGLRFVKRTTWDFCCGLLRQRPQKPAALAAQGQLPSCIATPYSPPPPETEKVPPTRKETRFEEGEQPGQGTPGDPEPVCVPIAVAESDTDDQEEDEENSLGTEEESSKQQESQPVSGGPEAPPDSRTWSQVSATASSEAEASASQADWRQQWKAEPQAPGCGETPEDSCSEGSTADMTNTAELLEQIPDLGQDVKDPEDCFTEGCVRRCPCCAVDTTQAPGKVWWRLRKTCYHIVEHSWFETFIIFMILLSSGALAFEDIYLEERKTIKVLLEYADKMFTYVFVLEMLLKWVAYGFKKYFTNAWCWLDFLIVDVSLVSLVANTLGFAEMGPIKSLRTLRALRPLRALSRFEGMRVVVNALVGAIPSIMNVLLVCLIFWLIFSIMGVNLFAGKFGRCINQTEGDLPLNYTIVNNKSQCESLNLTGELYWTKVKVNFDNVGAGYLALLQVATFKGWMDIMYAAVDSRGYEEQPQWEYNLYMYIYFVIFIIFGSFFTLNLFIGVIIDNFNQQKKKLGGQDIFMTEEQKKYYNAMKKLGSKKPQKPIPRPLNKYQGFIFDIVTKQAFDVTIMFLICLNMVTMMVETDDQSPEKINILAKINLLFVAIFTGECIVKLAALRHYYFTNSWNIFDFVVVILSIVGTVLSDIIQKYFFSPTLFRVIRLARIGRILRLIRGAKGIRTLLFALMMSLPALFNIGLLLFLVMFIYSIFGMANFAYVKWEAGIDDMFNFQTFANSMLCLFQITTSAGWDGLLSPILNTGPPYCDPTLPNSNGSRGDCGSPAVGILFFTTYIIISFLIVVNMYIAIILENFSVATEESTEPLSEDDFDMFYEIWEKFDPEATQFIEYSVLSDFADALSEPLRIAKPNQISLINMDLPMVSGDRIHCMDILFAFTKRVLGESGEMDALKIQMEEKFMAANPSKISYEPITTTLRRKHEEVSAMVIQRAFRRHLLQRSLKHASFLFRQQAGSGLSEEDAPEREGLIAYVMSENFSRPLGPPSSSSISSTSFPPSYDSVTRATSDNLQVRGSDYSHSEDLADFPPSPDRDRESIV

With `COc1cc(-c2ccc(OC(F)(F)F)c(C)c2)cc2c(OCc3ncccn3)noc12` [Example 23, 7-methoxy-5-(3-methyl-4-(trifluoromethoxy)phenyl)-3-(pyrimidin-2-ylmethoxy)benzo[d]isoxazole] the inhibition at 1 µM [1] was 45.3% and the inhibition at 3 µM [2, 3] was less than 5%.
In the case of `Cc1cccc(COc2noc3ccc(-c4ccc(OC(F)(F)F)cc4)cc23)n1` [Example 95, 3-((6-methylpyridin-2-yl)methoxy)-5-(4-(trifluoromethoxy)phenyl)benzo[d]isoxazole], the inhibition at 1 µM [1] is reported as 51.7%, the inhibition at 3 µM [2, 4] is reported as 6.4% and the inhibition at 3 µM [2, 3] is reported as less than 5%.
`CCn1cncc1COc1noc2ccc(-c3ccc(OC(F)(F)F)cc3)cc12` [Example 49, 3-((1-ethyl-1H-imidazol-5-yl)methoxy)-5-(4-(trifluoromethoxy)phenyl)benzo[d]isoxazole] gave an inhibition at 1 µM [1] of 39.6%, an inhibition at 3 µM [2, 4] of 16.9% and an inhibition at 3 µM [2, 3] of less than 5%.
Compound `FC(F)(F)Oc1ccc(-c2ccc3onc(OCc4cn5ccccc5n4)c3c2)cc1` [Example 51, 3-(imidazo[1,2-a]pyridin-2-ylmethoxy)-5-(4-(trifluoromethoxy)phenyl)benzo[d]isoxazole] has an inhibition at 1 µM [1] of 38.8%, an inhibition at 3 µM [2, 4] of 12.3% and an inhibition at 3 µM [2, 3] of 7.7%.
In the case of `O=C1CC[C@H](COc2noc3ccc(-c4ccc(OC(F)(F)F)cc4)cc23)N1` [Example 61, (R)-5-(((5-(4-(trifluoromethoxy)phenyl)benzo[d]isoxazol-3-yl)oxy)methyl)pyrrolidin-2-one], the inhibition at 1 µM [1] is reported as 38.2%, the inhibition at 3 µM [2, 4] is reported as 11.8% and the inhibition at 3 µM [2, 3] is reported as 6.6%.
Work on `Cc1cc(-c2ccc(OC(F)(F)F)cc2)cc2c(OCCn3cncn3)noc12` [Example 89, 3-(2-(1H-1,2,4-triazol-1-yl)ethoxy)-7-methyl-5-(4-(trifluoromethoxy)phenyl)benzo[d]isoxazole] yielded an inhibition at 1 µM [1] of 33.2%, an inhibition at 3 µM [2, 4] of 5.7% and an inhibition at 3 µM [2, 3] of less than 5%.
`Cc1nc(C)n(CCOc2noc3ccc(-c4ccc(OC(F)(F)F)cc4)cc23)n1` [Example 76, 3-(2-(3,5-dimethyl-1H-1,2,4-triazol-1-yl)ethoxy)-5-(4-(trifluoromethoxy)phenyl)benzo[d]isoxazole] showed an inhibition at 1 µM [1] of 55.2%, an inhibition at 3 µM [2, 4] of 49.9% and an inhibition at 3 µM [2, 3] of less than 5%.
Compound `FC(F)(F)Oc1ccc(-c2ccc3onc(OCc4cn[nH]c4)c3c2)cc1` [Example 45, 3-((1H-pyrazol-4-yl)methoxy)-5-(4-(trifluoromethoxy)phenyl)benzo[d]isoxazole] has an inhibition at 1 µM [1] of 43.6%, an inhibition at 3 µM [2, 4] of 16.8% and an inhibition at 3 µM [2, 3] of 15.1%.
For `Fc1cc2onc(OCc3ncccn3)c2cc1-c1ccc(OC(F)(F)F)cc1` [Example 31, 6-fluoro-3-(pyrimidin-2-ylmethoxy)-5-(4-(trifluoromethoxy)phenyl)benzo[d]isoxazole], the inhibition at 1 µM [1] was 43.9%, the inhibition at 3 µM [2, 4] was 18.5% and the inhibition at 3 µM [2, 3] was less than 5%.
For `CC1(COc2noc3ccc(-c4ccc(OC(F)(F)F)cc4)cc23)COC1` [Example 92, 3-((3-methyloxetan-3-yl)methoxy)-5-(4-(trifluoromethoxy)phenyl)benzo[d]isoxazole], the inhibition at 1 µM [1] was 36.3%, the inhibition at 3 µM [2, 4] was 9.6% and the inhibition at 3 µM [2, 3] was less than 5%.
Compound `FC(F)(F)Oc1ccc(-c2ccc3onc(OCCN4CCOCC4)c3c2)cc1` [Example 78, 3-(2-morpholinoethoxy)-5-(4-(trifluoromethoxy)phenyl)benzo[d]isoxazole] has an inhibition at 1 µM [1] of 47.1%, an inhibition at 3 µM [2, 4] of 38.7% and an inhibition at 3 µM [2, 3] of 19.5%.
`Cc1cc(-c2ccc(OC(F)(F)F)cc2)cc2c(OCc3ncco3)noc12` [Example 91, 7-methyl-3-(oxazol-2-ylmethoxy)-5-(4-(trifluoromethoxy)phenyl)benzo[d]isoxazole] gave an inhibition at 1 µM [1] of 53%, an inhibition at 3 µM [2, 4] of 33% and an inhibition at 3 µM [2, 3] of less than 5%.
`CC(Oc1noc2ccc(-c3ccc(OC(F)(F)F)cc3)cc12)c1ccccn1` (stereo not shown) [Example 98, 3-(1-(pyridin-2-yl)ethoxy)-5-(4-(trifluoromethoxy)phenyl)benzo[d]isoxazole] was tested, and the inhibition at 1 µM [1] was 38.7%, the inhibition at 3 µM [2, 4] was 28.7% and the inhibition at 3 µM [2, 3] was less than 5%.
For `Cn1cc(COc2noc3ccc(-c4ccc(OC(F)(F)F)cc4)cc23)nn1` [Example 44], the inhibition at 1 µM [1] was 48.2%, the inhibition at 3 µM [2, 4] was 29.9% and the inhibition at 3 µM [2, 3] was 10.4%.
For `COc1cc(-c2ccc(C(F)(F)F)cc2F)cc2c(OCc3ncccn3)noc12` [Example 24, 5-(2-fluoro-4-(trifluoromethyl)phenyl)-7-methoxy-3-(pyrimidin-2-ylmethoxy)benzo[d]isoxazole], the inhibition at 1 µM [1] was 36%, the inhibition at 3 µM [2, 4] was 10% and the inhibition at 3 µM [2, 3] was less than 5%.
`CC(C)n1ccnc1COc1noc2ccc(-c3ccc(OC(F)(F)F)cc3)cc12` [Example 48, 3-((1-isopropyl-1H-imidazol-2-yl)methoxy)-5-(4-(trifluoromethoxy)phenyl)benzo[d]isoxazole] gave an inhibition at 1 µM [1] of 51.2%, an inhibition at 3 µM [2, 4] of 9.1% and an inhibition at 3 µM [2, 3] of 5.7%.
`O=C1CCCN1CCOc1noc2c(F)cc(-c3ccc(OC(F)(F)F)cc3)cc12` [Example 80, 1-(2-((7-fluoro-5-(4-(trifluoromethoxy)phenyl)benzo[d]isoxazol-3-yl)oxy)ethyl)pyrrolidin-2-one] showed an inhibition at 1 µM [1] of 35.6%, an inhibition at 3 µM [2, 4] of 17.3% and an inhibition at 3 µM [2, 3] of 13.7%.
`Cn1cncc1COc1noc2ccc(-c3ccc(OC(F)(F)F)cc3)cc12` [Example 50, 3-((1-methyl-1H-imidazol-5-yl)methoxy)-5-(4-(trifluoromethoxy)phenyl)benzo[d]isoxazole] gave an inhibition at 1 µM [1] of 32.5% and an inhibition at 3 µM [2, 3] of less than 5%.
`Fc1cc2onc(OCc3ncccn3)c2cc1-c1ccc2c(c1)OC(F)(F)O2` [Example 35, 5-(2,2-difluorobenzo[d][1,3]dioxol-5-yl)-6-fluoro-3-(pyrimidin-2-ylmethoxy)benzo[d]isoxazole] gave an inhibition at 1 µM [1] of 33.6%, an inhibition at 3 µM [2, 4] of 17.4% and an inhibition at 3 µM [2, 3] of less than 5%.
In the case of `FC1(F)Oc2ccc(-c3ccc4onc(OCc5ncccn5)c4c3)cc2O1` [Example 30, 5-(2,2-difluorobenzo[d][1,3]dioxol-5-yl)-3-(pyrimidin-2-ylmethoxy)benzo[d]isoxazole], the inhibition at 1 µM [1] is reported as 42.5%, the inhibition at 3 µM [2, 4] is reported as 15.2% and the inhibition at 3 µM [2, 3] is reported as less than 5%.
Work on `Cc1cccnc1COc1noc2ccc(-c3ccc(OC(F)(F)F)cc3)cc12` [Example 93, 3-((3-methylpyridin-2-yl)methoxy)-5-(4-(trifluoromethoxy)phenyl)benzo[d]isoxazole] yielded an inhibition at 1 µM [1] of 45.1%, an inhibition at 3 µM [2, 4] of 14.9% and an inhibition at 3 µM [2, 3] of less than 5%.
Compound `CC(COc1noc2ccc(-c3ccc(OC(F)(F)F)cc3)cc12)n1cncn1` (stereo not shown) [Example 77, 3-(2-(1H-1,2,4-triazol-1-yl)propoxy)-5-(4-(trifluoromethoxy)phenyl)benzo[d]isoxazole] has an inhibition at 1 µM [1] of 49.2%, an inhibition at 3 µM [2, 4] of 34.6% and an inhibition at 3 µM [2, 3] of 8.3%.
With `COc1ccnc(COc2noc3ccc(-c4ccc(OC(F)(F)F)cc4)cc23)c1` [Example 81, 3-((4-methoxypyridin-2-yl)methoxy)-5-(4-(trifluoromethoxy)phenyl)benzo[d]isoxazole] the inhibition at 1 µM [1] was 33.7%, the inhibition at 3 µM [2, 4] was 23.5% and the inhibition at 3 µM [2, 3] was less than 5%.
`Cc1cc(-c2cc(C)c3onc(OCc4ncccn4)c3c2)ccc1OC(F)(F)F` [Example 18, 7-methyl-5-(3-methyl-4-(trifluoromethoxy)phenyl)-3-(pyrimidin-2-ylmethoxy)benzo[d]isoxazole] was tested, and the inhibition at 1 µM [1] was 38.2%, the inhibition at 3 µM [2, 4] was 27.7% and the inhibition at 3 µM [2, 3] was 5.2%.

Source: US9416115B2, “Fused heterocyclic compounds as ion channel modulators” (Gilead Sciences, Inc., priority 2013, dated 2016)
